Assay: Inhibition of rat intestinal alpha-glucosidase using para-nitrophenyl-alpha-D-glucopyranoside as substrate incubated for 5 min prior to substrate addition measured after 5 min by spectrophotometric analysis

SMILES | IC50 [µM]
O=C(/C=C/c1ccccc1)c1cc2ccoc2cc1O | 14.5
O=C(/C=C/c1ccc(O)c(O)c1)c1ccc2occc2c1O | 15.2
COc1ccc(/C=C/C(=O)c2ccc3occc3c2O)c(OC)c1OC | 17.3
O=C(/C=C/c1ccc(O)c(O)c1)c1cc2ccoc2cc1O | 18.9

Now those with a lower IC50, led by results:

IC50 [µM] | SMILES
13.4 | COc1cc(OC)c(OC)cc1/C=C/C(=O)c1cc2ccoc2cc1O
10.9 | O=C(/C=C/c1ccc(O)cc1)c1ccc2occc2c1O
10.8 | COc1ccc(/C=C/C(=O)c2cc3ccoc3cc2O)cc1OC
9.2 | COc1ccc(/C=C/C(=O)c2ccc3occc3c2O)cc1
5 | COc1ccc(/C=C/C(=O)c2ccc3occc3c2O)cc1OC

— BindingDB's records for doi:10.1007/s00044-011-9583-7 (n/a, 2012)
